The record followed here is ChEMBL document CHEMBL2331142, “Synthesis of new triazole acetamides with inotropic effects” (Bioorg Med Chem Lett, 2013).

The species named for series [1] is Oryctolagus cuniculus. Briefly: (§1) Positive inotropic effect in rabbit left atrium assessed as increase in stroke volume at 3 x 10^-5 M measured for 2 mins relative to control. It counts as functional. Conditions: Cardiac atrium.
A short description of series [2]: as §1. It counts as functional, Oryctolagus cuniculus, Cardiac atrium.
Series [3] is filed under the species Oryctolagus cuniculus. Briefly: Chronotropic effect in rabbit heart assessed as change in heart rate at 3 x 10^-5 M by electrocardiogram analysis relative to control. The settings on record: in vivo, 30 µM. It counts as ADME, organism-based.
For series [4], the species on record is Oryctolagus cuniculus. Description: Positive inotropic effect in rabbit left atrium assessed as increase in stroke volume at 1 x 10^-4 M measured for 2 mins. In kind it is functional, tissue-based. Conditions: Cardiac atrium.
Series [5] can be described thus: Ratio of compound activity to milrinone activity for increase in stroke volume in rabbit left atrium at 3 x 10^-5 M. In kind it is functional, Oryctolagus cuniculus, Cardiac atrium.

The source made the active and inactive calls. The calls are words filed in the database; no cut-off is given here.

As for `O=C(CN1CCN(Cc2cccc(Br)c2)CC1)Nc1ccc2c(c1)CCc1nnc(-c3cccc(Cl)c3)n1-2`, the outcome in the series filed under Oryctolagus cuniculus [1] was inactive. Take `O=C(CN1CCN(Cc2ccc(Cl)c(Cl)c2)CC1)Nc1ccc2c(c1)CCc1nnc(-c3cccc(Cl)c3)n1-2`: in the series filed under Oryctolagus cuniculus [1], the result was inactive. Regarding `O=C(CN1CCN(Cc2ccccc2Br)CC1)Nc1ccc2c(c1)CCc1nnc(-c3cccc(Cl)c3)n1-2`, the outcome in the series filed under Oryctolagus cuniculus [1] was inactive. With `O=C(CN1CCN(Cc2cccc(F)c2)CC1)Nc1ccc2c(c1)CCc1nnc(-c3cccc(Cl)c3)n1-2`, the Activity in series [2] was found to be 6.33%. For the molecule `O=C(CN1CCN(Cc2ccccc2)CC1)Nc1ccc2c(c1)CCc1nnc(-c3ccccc3Cl)n1-2`, the Activity result in the series listed under Oryctolagus cuniculus [3] was “Non-toxic”; in series [2] it was 15.62%. As for `O=C(CN1CCN(Cc2ccc(Cl)cc2)CC1)Nc1ccc2c(c1)CCc1nnc(-c3cccc(Cl)c3)n1-2`, the Activity in series [2] was 7.22%.

`O=C(CN1CCN(Cc2ccc(F)cc2)CC1)Nc1ccc2c(c1)CCc1nnc(-c3ccccc3Cl)n1-2`: the Activity in series [2] was 4.58%. On the same count and under the same terms, the same measure for `O=C(CN1CCN(Cc2ccccc2F)CC1)Nc1ccc2c(c1)CCc1nnc(-c3ccccc3Cl)n1-2`: 2.39%; for `O=C(CN1CCN(Cc2cccc(Cl)c2)CC1)Nc1ccc2c(c1)CCc1nnc(-c3ccccc3Cl)n1-2`: 2.18%. Still for that read-out and setting: with `Cc1ccc(CN2CCN(CC(=O)Nc3ccc4c(c3)CCc3nnc(-c5cccc(Cl)c5)n3-4)CC2)cc1` the figure was 4.25%.

`COc1ccc(CN2CCN(CC(=O)Nc3ccc4c(c3)CCc3nnc(-c5cccc(Cl)c5)n3-4)CC2)cc1`: the Activity entry is “Non-toxic” in the series filed under Oryctolagus cuniculus [3] and 16.84% in series [2]. Moreover, in the series filed under Oryctolagus cuniculus [4], the outcome was Active. Consider `CCCCN1CCN(CC(=O)Nc2ccc3c(c2)CCc2nnc(-c4cccc(Cl)c4)n2-3)CC1`, for which the Activity in series [2] was found to be 2.33%. The same measure, in the same setting: the same measure for `Cc1[nH]c(=O)c(C#N)cc1-c1ccncc1` [MILRINONE]: 2.46%. Take `O=C(CN1CCN(Cc2ccc(Cl)cc2Cl)CC1)Nc1ccc2c(c1)CCc1nnc(-c3cccc(Cl)c3)n1-2`: the outcome in the series listed under Oryctolagus cuniculus [1] was inactive. Take `O=C(CN1CCN(Cc2ccc(Br)cc2)CC1)Nc1ccc2c(c1)CCc1nnc(-c3cccc(Cl)c3)n1-2`: the Activity in series [2] stood at 2.31%. Turning to `COc1ccc(CN2CCN(CC(=O)Nc3ccc4c(c3)CCc3nnc(-c5ccccc5Cl)n3-4)CC2)cc1`, the Activity in series [2] is reported as 9.12%.

Turning to `O=C(CN1CCN(Cc2ccccc2Cl)CC1)Nc1ccc2c(c1)CCc1nnc(-c3cccc(Cl)c3)n1-2`, the Activity in series [2] came out at 0.8%. In the case of `CCCCCCN1CCN(CC(=O)Nc2ccc3c(c2)CCc2nnc(-c4cccc(Cl)c4)n2-3)CC1`, the outcome in the series listed under Oryctolagus cuniculus [1] was inactive.

Consider `CCCCCCCCN1CCN(CC(=O)Nc2ccc3c(c2)CCc2nnc(-c4cccc(Cl)c4)n2-3)CC1`, for which the outcome in the series listed under Oryctolagus cuniculus [1] was inactive. Regarding `O=C(CN1CCN(Cc2ccc(F)cc2)CC1)Nc1ccc2c(c1)CCc1nnc(-c3cccc(Cl)c3)n1-2`, the Activity result in the series filed under Oryctolagus cuniculus [3] is “Non-toxic”; in series [2] it was 16.49%. As for `O=C(CN1CCN(Cc2ccccc2F)CC1)Nc1ccc2c(c1)CCc1nnc(-c3cccc(Cl)c3)n1-2`, the Activity result in the series filed under Oryctolagus cuniculus [3] is “Non-toxic”; in series [2], 20.29%. Moreover, the result in the series filed under Oryctolagus cuniculus [4] was Active. Besides, the Ratio in series [5] is 8.2. Turning to `O=C(CN1CCN(Cc2cccc(Cl)c2)CC1)Nc1ccc2c(c1)CCc1nnc(-c3cccc(Cl)c3)n1-2`, the figures for the Activity entry (in the series listed under Oryctolagus cuniculus [3]; in series [2]) were “Toxic” and 15.75%, respectively. `O=C(CN1CCN(Cc2ccccc2)CC1)Nc1ccc2c(c1)CCc1nnc(-c3cccc(Cl)c3)n1-2`: the Activity in series [2] came to 8.07%. On the same count and under the same terms, the same measure for `CCCCCN1CCN(CC(=O)Nc2ccc3c(c2)CCc2nnc(-c4cccc(Cl)c4)n2-3)CC1`: 0.8%.
